PubChem BioAssay (NCI)
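Exposure lasted 48 hours, with cells grown in 96-well plates and compounds tested at five concentrations. Here, GI50 denotes the concentration required for 50% inhibition of growth. TGI is the concentration that stops growth completely.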

Columns and labels:
Assay in all cases: NCI tumour cell line growth inhibition, 48 h
SK-MEL-5 melanoma = test system: SK-MEL-5 melanoma
SK-MEL-28 melanoma = test system: SK-MEL-28 melanoma
EKVX NSCLC = test system: EKVX NSCLC
RXF 393 renal = test system: RXF 393 renal
NCI-H522 lung = test system: NCI-H522 lung
OVCAR-8 ovarian = test system: OVCAR-8 ovarian
A549 NSCLC = test system: A549 NSCLC
SR leukemia = test system: SR leukemia
SF-539 CNS = test system: SF-539 CNS
T-47D breast = test system: T-47D breast

| SMILES | TGI (SK-MEL-5 melanoma) [µM] | TGI (SK-MEL-28 melanoma) [µM] | TGI (EKVX NSCLC) [µM] | TGI (RXF 393 renal) [µM] | TGI (NCI-H522 lung) [µM] | TGI (OVCAR-8 ovarian) [µM] | TGI (A549 NSCLC) [µM] | TGI (SR leukemia) [µM] | TGI (SF-539 CNS) [µM] | TGI (T-47D breast) [µM] | GI50 (SK-MEL-5 melanoma) [µM] | GI50 (SK-MEL-28 melanoma) [µM] | GI50 (EKVX NSCLC) [µM] | GI50 (RXF 393 renal) [µM] | GI50 (T-47D breast) [µM] | GI50 (NCI-H522 lung) [µM] | GI50 (OVCAR-8 ovarian) [µM] | GI50 (A549 NSCLC) [µM] | GI50 (SF-539 CNS) [µM] | GI50 (SR leukemia) [µM] |
| --- | --- | --- | --- | --- | --- | --- | --- | --- | --- | --- | --- | --- | --- | --- | --- | --- | --- | --- | --- | --- |
| COc1ccccc1C(O)(c1ccccc1)C(O)(c1ccccc1)c1ccccc1OC (configuration not stated) | > 100 | > 100 | > 100 | > 100 | > 100 | > 100 | > 100 | > 100 | > 100 |  |  |  |  |  |  |  |  |  |  |  |
| Cc1ccc(N2C(=O)C=C(C3=C(O)C(=O)N(c4ccc(C)cc4)C3=O)C2=O)cc1 | > 100 | > 100 | > 100 |  |  | > 100 | > 100 | > 100 |  | > 100 |  |  |  |  |  |  |  |  |  |  |
| c1cc(N2CCCN(c3ccc(C4=NCCCN4)cc3)CC2)ccc1C1=NCCCN1 | > 100 | > 100 | > 100 | > 100 | > 100 | > 100 | > 100 |  | > 100 | > 100 | 46.6 | > 100 | 40.6 | > 100 | > 100 | > 100 | > 100 | 59.6 | 59.4 |  |
| CC(=O)NC1=C(NC(C)(C)C)C(=O)c2ccccc2C1=O | 32.5 | 43.1 | 99.2 | 33.3 |  | 39.5 | > 100 |  | 33.3 |  |  |  |  |  |  |  |  |  |  |  |
| COc1cc(-c2ccc(-c3ccc(C(=N)N)nc3)s2)cc(OC)c1OC | 3.08 | 3.18 | 18.2 | 4.83 | 4.14 | 5.23 | 4.51 |  | 3.01 |  | 1.67 | 1.62 | 5.19 | 2.19 |  | 1.8 | 2.3 | 2.06 | 1.61 | 2.48 |
| C=C(C#N)C1OCC2OC(C)(C)OC21 (configuration not stated) | 34 | 43.2 | 60 | 31.3 |  | 48.7 | > 100 |  | 30 |  |  |  |  |  |  |  |  |  |  |  |
| COc1ccc(-c2cc(=O)c3ccccc3o2)cc1N | > 100 | > 100 | > 100 | > 100 | 77.6 | > 100 | > 100 |  | > 100 |  |  |  |  |  |  |  |  |  |  |  |
| COc1ccc(/C(=N\NC(=O)C(=O)NN)C(c2ccc(OC)cc2)C2(O)C(=O)Nc3ccccc32)cc1 (configuration not stated) | > 100 | > 100 | > 100 |  | > 100 | > 100 | > 100 | > 100 | > 100 |  |  |  |  |  |  |  |  |  |  |  |
| Cn1nc(-c2ccccc2)c(C(=O)/C=C/c2ccc(Cl)cc2)c(N2CCCCC2)c1=O | 3.75 | 14.3 | 15.3 | 2.8 | 4.26 | 16.5 | 8.65 |  | 2.98 |  |  |  |  |  |  |  |  |  |  |  |
| C[C@]12CCC(=O)C(O)=C1CC[C@@H]1C2CC[C@]2(C)NC(=O)CCC12 (some centres not stated) | > 100 | > 100 | > 100 | > 100 | > 100 | > 100 | > 100 |  | > 100 |  |  |  |  |  |  |  |  |  |  |  |
